In brackets after ≈: the same amount, converted by molar mass. Bounds are passed on as bounds.

In one experiment the test system is HEK293. As to the kind of experiment: cells. It counts as functional, Homo sapiens, ATCC CRL1573. The conditions noted are these: Homo sapiens, ATCC CRL1573, HEK293; ASSAY_TEST Inhibition of Cell Viability; detection method Resazurin; Fluorescence (ex560/em590); MEDIA DMEM with 10% FBS; plate type 384well; TC; CORNING #3712; time 18 hr; read-out: CC50.
The subject of experiment [1] is Pseudomonas aeruginosa. As to the kind of experiment: Antibacterial activity against Pseudomonas aeruginosa PAO397 [PAO1 d(mexAB-oprM) d(mexCD-oprJ) d(mexEF-oprN) d(mexJKL) d(mexXY) d(opmH)] (CO-ADD:GN_211); MIC in CAMBH media using NBS plates, by OD(600). It counts as functional. Conditions: ASSAY_TEST Inhibition of Bacterial Growth, detection method Absorption (OD600), MEDIA CAMHB, plate type 384well, CORNING #3640, time 18 hr.

In a further experiment the test system is Staphylococcus aureus. The experiment is described as follows: microbe, parasite or virus in culture. Conditions: ATCC 43300, 18 h, ASSAY_TEST Inhibition of Bacterial Growth, detection method Absorption (OD600), MEDIA CAMHB, plate type 384well, NBS, CORNING #3640.
Another experiment relates to Escherichia coli. As to the kind of experiment: microbe, parasite or virus in culture. The conditions noted are these: ATCC 25922, 18 h, ASSAY_TEST Inhibition of Bacterial Growth, detection method Absorption (OD600), MEDIA CAMHB, plate type 384well, NBS, CORNING #3640.
The subject of a further experiment is Klebsiella pneumoniae. As to the kind of experiment: microbe, parasite or virus in culture. Conditions: ATCC 700603, 18 h, ASSAY_TEST Inhibition of Bacterial Growth, detection method Absorption (OD600), MEDIA CAMHB, plate type 384well, NBS, CORNING #3640.
Experiment [2] relates to Pseudomonas aeruginosa. As to the kind of experiment: microbe, parasite or virus in culture. The conditions noted are these: ATCC 27853, 18 h, ASSAY_TEST Inhibition of Bacterial Growth, detection method Absorption (OD600), MEDIA CAMHB, plate type 384well, NBS, CORNING #3640.
Description: Antibacterial activity against Pseudomonas aeruginosa ATCC 27853 (CO-ADD:GN_042); MIC in CAMBH media using NBS plates, by OD(600)
A further experiment deals with Acinetobacter baumannii. The experiment is described as follows: microbe, parasite or virus in culture. Conditions: ATCC 19606, 18 h, ASSAY_TEST Inhibition of Bacterial Growth, detection method Absorption (OD600), MEDIA CAMHB, plate type 384well, NBS, CORNING #3640.
The test system of the next experiment is Candida albicans. As to the kind of experiment: microbe, parasite or virus in culture. Conditions: ATCC 90028, ASSAY_TEST Inhibition of Fungal Growth, detection method Absorption (OD530), plate type 384well, NBS, CORNING #3640.

Description for Acinetobacter baumannii: Antibacterial activity against Acinetobacter baumannii ATCC 19606 (CO-ADD:GN_034); MIC in CAMBH media using NBS plates, by OD600
Description for Candida albicans: Antifungal activity against Candida albicans ATCC 90028 (CO-ADD:FG_001); MIC in YNB media using NBS plates, by OD630
Description for Cryptococcus neoformans: Antifungal activity against Cryptococcus neoformans H99 ATCC 208821 (CO-ADD:FG_002); MIC in YNB media using NBS plates, by Resazurin OD(600-570)
Description for Escherichia coli: Antibacterial activity against Escherichia coli ATCC 25922 (CO-ADD:GN_001); MIC in CAMBH media using NBS plates, by OD(600)
Description for Klebsiella pneumoniae: Antibacterial activity against Klebsiella pneumoniae MDR ATCC 70063 (CO-ADD:GN_003); MIC in CAMBH media using NBS plates, by OD(600)
Description for Staphylococcus aureus: Antibacterial activity against Staphylococcus aureus MRSA ATCC 43300 (CO-ADD:GP_020); MIC in CAMBH media, using NBS plates, by OD(600)

With `Nc1nc(NC2Cc3ccc(F)cc3C2)nc(N2CCCCC2)n1` (centres undefined), the CC50 in the experiment with HEK293 was greater than 20 µM. For the same compound, the MIC in the experiment on Pseudomonas aeruginosa [1], against Cryptococcus neoformans, in the experiment with Staphylococcus aureus, in the experiment on Escherichia coli, in the experiment with Klebsiella pneumoniae and in the experiment on Pseudomonas aeruginosa [2] was greater than 20 µM throughout. In addition, the MIC in the experiment with Acinetobacter baumannii and in the experiment with Candida albicans was greater than 20 µM in each case.
For `O=C(Nc1nnc(-c2ccc(Cl)cc2)o1)c1nc2ccccc2s1`, the CC50 with HEK293 is greater than 20 µM. For the same compound, the MIC in the experiment on Pseudomonas aeruginosa [1], against Cryptococcus neoformans, in the experiment with Staphylococcus aureus, against Escherichia coli, in the experiment with Klebsiella pneumoniae and against Pseudomonas aeruginosa [2] was greater than 20 µM throughout. Besides, the MIC in the experiment with Acinetobacter baumannii and with Candida albicans was greater than 20 µM in each case.
`Cc1ccc(S(=O)(=O)Nc2cccc3cccnc23)cc1`: in the experiment on HEK293, the CC50 was 4.05 µM. Moreover, the MIC with Pseudomonas aeruginosa [1], in the experiment on Cryptococcus neoformans, against Staphylococcus aureus, against Escherichia coli, in the experiment with Klebsiella pneumoniae and against Pseudomonas aeruginosa [2] was greater than 20 µM throughout. Besides, the MIC against Acinetobacter baumannii and in the experiment on Candida albicans was greater than 20 µM throughout.
Turning to `Oc1c(C(Nc2ccccn2)c2ccccc2)ccc2cccnc12` (centres undefined), the CC50 in the experiment with HEK293 worked out at 19.6 µM. Besides, the MIC in the experiment on Pseudomonas aeruginosa [1] is greater than 20 µM; with Cryptococcus neoformans, 20 µM (≈ 6.55 µg/mL); against Staphylococcus aureus it was greater than 20 µM; against Escherichia coli, greater than 20 µM; with Klebsiella pneumoniae it was greater than 20 µM; against Pseudomonas aeruginosa [2], greater than 20 µM. In addition, the values for the MIC against Acinetobacter baumannii and against Candida albicans were greater than 20 µM and 20 µM (≈ 6.55 µg/mL), respectively.
In the case of `COc1ccc(CNC(=O)C(NS(=O)(=O)c2ccc3nc(C)sc3c2)C(C)C)cc1` (centres undefined), the CC50 in the experiment with HEK293 was greater than 20 µM. In addition, the MIC with Pseudomonas aeruginosa [1], in the experiment on Cryptococcus neoformans, with Staphylococcus aureus, in the experiment with Escherichia coli, against Klebsiella pneumoniae and in the experiment with Pseudomonas aeruginosa [2] was greater than 20 µM in each case. In addition, the MIC against Acinetobacter baumannii and in the experiment on Candida albicans was greater than 20 µM in each case.
Consider `O=[N+]([O-])c1cn(Cc2nc(O)nc(O)c2Br)cn1`, for which the CC50 with HEK293 is greater than 20 µM. For the same compound, the MIC against Pseudomonas aeruginosa [1], in the experiment with Cryptococcus neoformans, against Staphylococcus aureus, with Escherichia coli, in the experiment with Klebsiella pneumoniae and in the experiment with Pseudomonas aeruginosa [2] was greater than 20 µM throughout. The MIC against Acinetobacter baumannii and in the experiment with Candida albicans was greater than 20 µM throughout.
With `Cc1ccn2c(C(=O)NCc3ccccc3)c(C)nc2c1`, in the experiment on HEK293, the CC50 is greater than 20 µM. The MIC in the experiment on Pseudomonas aeruginosa [1], against Cryptococcus neoformans, with Staphylococcus aureus, in the experiment on Escherichia coli, in the experiment on Klebsiella pneumoniae and in the experiment on Pseudomonas aeruginosa [2] was greater than 20 µM each time. Further, the MIC in the experiment with Acinetobacter baumannii and against Candida albicans was greater than 20 µM in each case.
On to `Cc1c[nH]c(=O)nc1NCc1ccccc1`, for which the CC50 in the experiment with HEK293 was greater than 20 µM. In addition, the MIC with Pseudomonas aeruginosa [1], in the experiment on Cryptococcus neoformans, in the experiment on Staphylococcus aureus, against Escherichia coli, in the experiment with Klebsiella pneumoniae and with Pseudomonas aeruginosa [2] was greater than 20 µM throughout. For the same compound, the MIC against Acinetobacter baumannii and against Candida albicans was greater than 20 µM throughout.
As for `CC(C)Cn1c(=O)n(C)c(=O)c2c(-c3cncn3C)n(Cc3cccc4ccccc34)nc21`, the CC50 with HEK293 is greater than 20 µM. Also, the MIC in the experiment on Pseudomonas aeruginosa [1], in the experiment on Cryptococcus neoformans, against Staphylococcus aureus, in the experiment on Escherichia coli, against Klebsiella pneumoniae and with Pseudomonas aeruginosa [2] was greater than 20 µM each time. In addition, the MIC against Acinetobacter baumannii and in the experiment on Candida albicans was greater than 20 µM throughout.
Consider `O=C(NC12CC3CC(CC(C3)C1)C2)c1cc2ccccc2[nH]1`, for which the CC50 in the experiment with HEK293 is greater than 20 µM. Besides, the MIC in the experiment with Pseudomonas aeruginosa [1], with Cryptococcus neoformans, in the experiment on Staphylococcus aureus, in the experiment on Escherichia coli, against Klebsiella pneumoniae and with Pseudomonas aeruginosa [2] was greater than 20 µM each time. For the same compound, the MIC against Acinetobacter baumannii and in the experiment on Candida albicans was greater than 20 µM each time.
With `CCCCCc1ccc(C(=O)NCCn2cc(CCCCCc3c[nH]c(N)n3)nn2)cc1`, the CC50 in the experiment on HEK293 is greater than 20 µM. The MIC against Pseudomonas aeruginosa [1], with Cryptococcus neoformans, against Staphylococcus aureus, against Escherichia coli, with Klebsiella pneumoniae and against Pseudomonas aeruginosa [2] was greater than 20 µM throughout. Besides, the MIC with Acinetobacter baumannii and in the experiment with Candida albicans was greater than 20 µM throughout.
Turning to `N#Cc1c(F)c(Cl)c(NCc2ccccc2)c(C#N)c1F`, the CC50 with HEK293 was 5.16 µM. For the same compound, the MIC against Pseudomonas aeruginosa [1] is greater than 20 µM; in the experiment with Cryptococcus neoformans, greater than 20 µM; in the experiment with Staphylococcus aureus it was 5 µM (≈ 1.52 µg/mL); against Escherichia coli it was greater than 20 µM; in the experiment on Klebsiella pneumoniae it was greater than 20 µM; with Pseudomonas aeruginosa [2], greater than 20 µM. Besides, the MIC against Acinetobacter baumannii and in the experiment with Candida albicans was greater than 20 µM each time.
As for `Cc1cc(O)c2c(c1)C(=O)c1c(I)c(O)c(I)c(O)c1C2=O`, the CC50 in the experiment on HEK293 is greater than 20 µM. For the same compound, the MIC against Pseudomonas aeruginosa [1] is greater than 20 µM; in the experiment on Cryptococcus neoformans it was greater than 20 µM; in the experiment on Staphylococcus aureus it was 20 µM (≈ 10.4 µg/mL); against Escherichia coli it was greater than 20 µM; against Klebsiella pneumoniae, greater than 20 µM; with Pseudomonas aeruginosa [2], greater than 20 µM. Also, the MIC against Acinetobacter baumannii and against Candida albicans was greater than 20 µM in each case.
Regarding `CC(=O)Nc1cc(NS(=O)(=O)c2ccc(Cl)cc2)cc2c(Cl)[nH]nc12`, in the experiment on HEK293, the CC50 was greater than 20 µM. Besides, the MIC with Pseudomonas aeruginosa [1], against Cryptococcus neoformans, in the experiment with Staphylococcus aureus, against Escherichia coli, against Klebsiella pneumoniae and in the experiment with Pseudomonas aeruginosa [2] was greater than 20 µM in each case. The MIC against Acinetobacter baumannii and in the experiment on Candida albicans was greater than 20 µM throughout.
Consider `O=C(O)c1sccc1S(=O)(=O)n1ccc2cc(Br)ccc21`, for which the CC50 in the experiment with HEK293 is greater than 20 µM. Besides, the MIC with Pseudomonas aeruginosa [1], against Cryptococcus neoformans, in the experiment on Staphylococcus aureus, in the experiment on Escherichia coli, against Klebsiella pneumoniae and in the experiment on Pseudomonas aeruginosa [2] was greater than 20 µM in each case. Besides, the MIC against Acinetobacter baumannii and in the experiment with Candida albicans was greater than 20 µM each time.
On to `Oc1ccc2[nH]c(-c3ccccc3)nc2c1`, for which the CC50 in the experiment with HEK293 is greater than 20 µM. Besides, the MIC in the experiment on Pseudomonas aeruginosa [1], against Cryptococcus neoformans, against Staphylococcus aureus, with Escherichia coli, with Klebsiella pneumoniae and against Pseudomonas aeruginosa [2] was greater than 20 µM throughout. Also, the MIC against Acinetobacter baumannii and with Candida albicans was greater than 20 µM in each case.
In the case of `Cc1cccc(CC(=O)N[C@H]2CCOC2=O)c1`, the CC50 with HEK293 is greater than 20 µM. The MIC in the experiment on Pseudomonas aeruginosa [1], against Cryptococcus neoformans, in the experiment on Staphylococcus aureus, with Escherichia coli, with Klebsiella pneumoniae and against Pseudomonas aeruginosa [2] was greater than 20 µM in each case. The MIC against Acinetobacter baumannii and against Candida albicans was greater than 20 µM each time.
For the compound `CCCCc1ccc(-c2cc(C(=O)O)cc(-c3ccc(Cl)cc3)n2)cc1`, the CC50 with HEK293 is greater than 20 µM. Moreover, the MIC with Pseudomonas aeruginosa [1], with Cryptococcus neoformans, against Staphylococcus aureus, in the experiment on Escherichia coli, in the experiment on Klebsiella pneumoniae and against Pseudomonas aeruginosa [2] was greater than 20 µM throughout. For the same compound, the MIC in the experiment with Acinetobacter baumannii and with Candida albicans was greater than 20 µM in each case.
Consider `Nc1nc(-c2ccccc2)nc2c1ncn2[C@@H]1O[C@H](COS(=O)(=O)NC(=O)c2ccccc2O)[C@@H](O)[C@H]1O`, for which, in the experiment on HEK293, the CC50 is greater than 20 µM. For the same compound, the MIC against Pseudomonas aeruginosa [1], against Cryptococcus neoformans, in the experiment on Staphylococcus aureus, against Escherichia coli, with Klebsiella pneumoniae and in the experiment with Pseudomonas aeruginosa [2] was greater than 20 µM in each case. In addition, the MIC against Acinetobacter baumannii and against Candida albicans was greater than 20 µM each time.
As for `CCc1cc(Cc2cnc(N)nc2N)cc2c1N(C)CCC2C` (centres undefined), the CC50 with HEK293 was greater than 20 µM. The MIC against Pseudomonas aeruginosa [1] was greater than 20 µM; in the experiment on Cryptococcus neoformans, greater than 20 µM; in the experiment on Staphylococcus aureus, 10 µM (≈ 3.11 µg/mL); in the experiment with Escherichia coli, greater than 20 µM; in the experiment on Klebsiella pneumoniae, greater than 20 µM; against Pseudomonas aeruginosa [2], greater than 20 µM. The MIC with Acinetobacter baumannii and against Candida albicans was greater than 20 µM throughout.
Take `C=CCc1cc(Cc2cnc(N)nc2N)cc(OC)c1O`: the CC50 in the experiment with HEK293 was greater than 20 µM. Further, the MIC was 10 µM (≈ 2.86 µg/mL) against Pseudomonas aeruginosa [1]; greater than 20 µM in the experiment with Cryptococcus neoformans; 2.5 µM (≈ 0.716 µg/mL) in the experiment with Staphylococcus aureus; 2.5 µM (≈ 0.716 µg/mL) with Escherichia coli; 10 µM (≈ 2.86 µg/mL) against Klebsiella pneumoniae; greater than 20 µM with Pseudomonas aeruginosa [2]. For the same compound, the MIC in the experiment on Acinetobacter baumannii and against Candida albicans was greater than 20 µM in each case.

Source of the values: ChEMBL document CHEMBL4513161, “CO-ADD screening of MMV (CH) - Pandemic Response Box” (2021).
